# Experimental data taken from patent US20250049787A1, “TREATMENT FOR ACUTE MYELOID LEUKEMIA OR LYMPHOMA” (UNIVERSITY HEALTH NETWORK, priority 2021, published 2025).
# Structures can show the parent of a compound that is named as a salt.
# Legend:
# c-KIT (CD117) = assay: Flow cytometry, cell surface c-KIT in primary human AML cells; type: cell-based; settings: FLT3-ITD positive primary AML cells, viable CD14− blasts, 48 and 72 hours, dose-dependent
# Procedure: Patient samples were obtained from Dr. Mark Minden (Princess Margaret Cancer Centre, Toronto, Ontario, Canada). FLT3-ITD positive AML cells were treated with the indicated concentrations of Compound (I) for 48 and 72 hours at 37° C. and 5% CO2 and stained with APC-CD45, PECy7-CD38, APC/Fire 750-CD33, PerCP-CD14, PE-FLT3 (Beckman Coulter, Cat. IM2234U), PE/Dazzle 594-CD117 (BioLegend, Cat. #313226) or isotype control antibodies and analyzed on a BD LSRFortessa II flow cytometry analyzer. Data were analyzed using FlowJo software and representative data are shown. Compound (I) treatment increases the cell surface expression of FLT3 and c-KIT in a dose-dependent manner in viable CD14^− AML blast cells. Similar results were obtained in additional FLT3-ITD positive primary AML samples (data not shown).
# cell surface FLT3-ITD = assay: Flow cytometry, cell surface FLT3-ITD in MV-4-11 cells; type: cell-based, human; settings: 100 nM, 4 hours
# Procedure: MV-4-11 cells were treated with 100 nM Compound (I) tartrate or DMSO control for 4 hours at 37° C. and 5% CO2 and stained with PE-FLT3 (Beckman Coulter, Cat. IM2234U) or an isotype control antibody and analyzed on a BD LSRFortessa II flow cytometry analyzer. Data were analyzed using FlowJo software and representative data are shown. […] Compound (I) tartrate treatment increases the cell surface expression of FLT3-ITD in MV-4-11 cells.
# MV-4-11 xenografts = assay: MV-4-11 xenograft model of human AML in CD-1 Nude mice; type: in vivo; settings: for tumor status after 10 days of treatment: established MV-4-11 xenografts
# Procedure: Female 8- to 10-week-old CD-1 Nude mice (Charles River Laboratories) with established MV-4-11 xenografts were treated for 21 days (n=8). MV-4-11 cells is a human AML cell line which endogenously expresses a Fms Related Receptor Tyrosine Kinase 3 (FLT3) internal tandem duplication (ITD) mutation. Animal weights were monitored daily, and tumor volume was measured three times per week. Tumor volume (mm^3) was defined as follows, length×width^2/2. Percentage tumor growth inhibition (% TGI) was defined as follows, 100×[1−(TVf,treated−TVi,treated)/(TVf,control−TVi,control)], where TVf is the average tumor volume at the end of study, and TVi is the average tumor volume at the initiation of treatment. In cases where tumor regression occurred, percentage tumor regression was defined as follows, 100×[1−(TVf,treated/TVi,treated)]. At the completion of the study, the mice were sacrificed by an anesthetic overdose. The Institutional Animal Care and Use Committee of the University Health Network approved all animal procedures. […] Data are represented as mean±SEM. p values were calculated using Student's/test.
# MV-4-11 = assay: Growth inhibition, Alamar Blue; type: cell-based; settings: Homo sapiens, MV4-11, 72 h; MV-4-11, AML M5; FLT3 ITD, protein expressed; 3 days
# Procedure: (§1) Cell lines were obtained from American Type Culture Collection (ATCC) and maintained according to the supplier's instructions, and from Dr. Mark Minden (Princess Margaret Cancer Centre, Toronto, Canada). Short tandem repeat (STR) profiling was used to verify authenticity of the cell lines. Peripheral blood from healthy human donors was obtained from the Hematology Malignancy Tissue Bank at the University Health Network. Peripheral blood mononuclear cells (PBMC) were prepared from the blood by density gradient centrifugation using Ficoll-Paque PLUS by manufacturer's instructions (GE Healthcare Life Sciences). […] Compound (I) tartrate was prepared as a 10 mM stock solution in 100% DMSO. The stock solution was diluted with RPMI-1640 (Invitrogen) containing 10% FBS (fetal bovine serum) such that the final concentrations ranged from 300 fM to 300 μM. Aliquots (20 μL) from each concentration were overlaid to 180 μL of pre-seeded cells to achieve final concentrations of 30 fM to 30 μM. After 3 days, cell growth in each well was assessed by Alamar Blue assay reagent (Invitrogen). Raw fluorescence (λEM=590 nm) values were adjusted by subtracting the average of the baseline readings from untreated cells assessed one day after cell seeding. Relative cell growth was calculated by comparing to DMSO-treated cells. The concentrations at which cell growth was inhibited by 50% (growth inhibition IC50) were calculated using GraphPad PRISM software (GraphPad Software Inc.).
# OCI-AML3 = assay: Growth inhibition, Alamar Blue; type: cell-based; settings: Homo sapiens, OCI-AML-3, 72 h; OCI-AML3, AML M4; 3 days
# Procedure: as §1
# OCI-AML5 = assay: Growth inhibition, Alamar Blue; type: cell-based; settings: Homo sapiens, OCI-AML-5, 72 h; OCI-AML5, AML M4; 3 days
# Procedure: as §1
# NALM-16 = assay: Growth inhibition, Alamar Blue; type: cell-based; settings: Homo sapiens, NALM16, 72 h; NALM-16, B-ALL; 3 days
# Procedure: as §1
# RAJI = assay: Growth inhibition, Alamar Blue; type: cell-based; settings: Homo sapiens, 72 h, NHL, Burkitt's lymphoma, 3 days
# Procedure: as §1
# NALM-6 = assay: Growth inhibition, Alamar Blue; type: cell-based; settings: Homo sapiens, 72 h; NALM-6, B-ALL; 3 days
# Procedure: as §1
# SU-DHL-8 = assay: Growth inhibition, Alamar Blue; type: cell-based; settings: Homo sapiens, 72 h; SU-DHL-8, NHL, GCB-DLBCL; 3 days
# Procedure: as §1
# PBMC = assay: Growth inhibition, Alamar Blue; type: cell-based; settings: 72 h, NORMAL (healthy human donors), 3 days
# Procedure: as §1
# [1] = test system: FLT3-ITD-expressing 32D cells; assay: Growth inhibition, 32D transfectants; type: cell-based; settings: 32D transfectant FLT3-ITD, without cytokines
# Procedure: as §1, with “The concentrations at which cell growth was inhibited by 50% (growth inhibition IC50) were calculated using GraphPad PRISM software (GraphPad Software Inc.).” left out
# [2] = test system: Wild-type FLT3-expressing 32D cells; assay: Growth inhibition, 32D transfectants; type: cell-based; settings: 32D transfectant wild-type FLT3, 50 ng/ml human FLT3 ligand
# Procedure: as §1, with “The concentrations at which cell growth was inhibited by 50% (growth inhibition IC50) were calculated using GraphPad PRISM software (GraphPad Software Inc.).” left out
smiles,measurement,setting,value
"CN1CCN(c2ccc3nc(-c4c(N)c5ccsc5[nH]c4=O)[nH]c3c2)CC1 [Compound (I) tartrate, 4-amino-5-(6-(4-methylpiperazin-1-yl)-1H-benzo[d]imidazol-2-yl)thieno[2,3-b]pyridin-6(7H)-one]",cell surface expression of c-KIT (CD117),c-KIT (CD117),increases
same,cell surface expression of FLT3-ITD,cell surface FLT3-ITD,increases
same,tumor status after 10 days of treatment,MV-4-11 xenografts; 50 mg/kg orally QD,tumors were undetectable
same,effect on large tumors after 7 days of treatment,"MV-4-11 xenografts; 50 mg/kg, large tumors (≅900 mm^3)",complete tumor regression
same,tumor status after 10 days of treatment,MV-4-11 xenografts; 150 mg/kg orally QD,tumors were undetectable
same,tolerability (body weight and behavior),"MV-4-11 xenografts; CD-1 Nude mice, 21 days treatment",well tolerated
same,IC50,MV-4-11,3.7 nM
same,IC50,OCI-AML3,≥ 30000 nM
same,IC50,OCI-AML5,270 nM
same,IC50,NALM-16,1100 nM
same,IC50,RAJI,6600 nM
same,IC50,NALM-6,10000 nM
same,IC50,SU-DHL-8,2600 nM
same,IC50,PBMC,14000 nM
same,IC50,[1],6.3 nM
same,IC50,[2],1650 nM
